Entries after “also recorded” stand apart in the source; their conditions may differ.
Assay: Dynamic Vapor Sorption (DVS), hygroscopicity
Type: physicochemical
Conditions: for hygroscopicity (in words): from DVS weight increase at 80% RH; for weight increase (DVS): at 80% RH, 25±1° C.
Protocol: Dynamic Vapor Sorption (DVS) was performed by using Intrinsic DVS (Surface Measurement Systems, UK). A sample was weighed in an amount of 20-30 mg and was placed in a sample chamber. The measurement was performed at DMDT mode when the temperature of the sample chamber was maintained at 25±1° C.

Row | SMILES | crystalline form (XRPD) of the sample before and after the DVS test | hygroscopicity (in words) | weight increase (DVS)
1 | C[C@@H](N)COc1ccc(-c2cnc3ccc(N[C@H](C)c4cccc(F)c4)nn23)cc1 [crystalline form B of Compound 1 free base] [3-{4-[(2R)-2-aminopropoxy]phenyl}-N-[(1R)-1-(3-fluorophenyl)ethyl]imidazo[1,2-b]pyridazin-6-amine] | changed | has hygroscopicity | 
2 | C[C@@H](N)COc1ccc(-c2cnc3ccc(N[C@H](C)c4cccc(F)c4)nn23)cc1 [crystalline form A of Compound 1 free base] [3-{4-[(2R)-2-aminopropoxy]phenyl}-N-[(1R)-1-(3-fluorophenyl)ethyl]imidazo[1,2-b]pyridazin-6-amine] | did not change | almost no hygroscopicity; also recorded: very low or nearly no hygroscopicity | 
3 | C[C@@H](N)COc1ccc(-c2cnc3ccc(N[C@H](C)c4cccc(F)c4)nn23)cc1 [crystalline form C of Compound 1 adipate, 3-{4-[(2R)-2-aminopropoxy]phenyl}-N-[(1R)-1-(3-fluorophenyl)ethyl]imidazo[1,2-b]pyridazin-6-amine] |  | low hygroscopicity | about 1%
4 | C[C@@H](N)COc1ccc(-c2cnc3ccc(N[C@H](C)c4cccc(F)c4)nn23)cc1 [crystalline form B of Compound 1 adipate, 3-{4-[(2R)-2-aminopropoxy]phenyl}-N-[(1R)-1-(3-fluorophenyl)ethyl]imidazo[1,2-b]pyridazin-6-amine] |  | has hygroscopicity | about 8.2%

Second part, the compound after the results:

Row | crystalline form (XRPD) of the sample before and after the DVS test | hygroscopicity (in words) | weight increase (DVS) | SMILES
5 |  | low hygroscopicity |  | C[C@@H](N)COc1ccc(-c2cnc3ccc(N[C@H](C)c4cccc(F)c4)nn23)cc1 [crystalline form D of Compound 1 adipate, 3-{4-[(2R)-2-aminopropoxy]phenyl}-N-[(1R)-1-(3-fluorophenyl)ethyl]imidazo[1,2-b]pyridazin-6-amine]
6 | no crystalline form change | has hygroscopicity |  | C[C@@H](N)COc1ccc(-c2cnc3ccc(N[C@H](C)c4cccc(F)c4)nn23)cc1 [crystalline form C of Compound 1 free base] [3-{4-[(2R)-2-aminopropoxy]phenyl}-N-[(1R)-1-(3-fluorophenyl)ethyl]imidazo[1,2-b]pyridazin-6-amine]
7 | did not change | some hygroscopicity | 2.896% | C[C@@H](N)COc1ccc(-c2cnc3ccc(N[C@H](C)c4cccc(F)c4)nn23)cc1 [crystalline form D of Compound 1 free base] [3-{4-[(2R)-2-aminopropoxy]phenyl}-N-[(1R)-1-(3-fluorophenyl)ethyl]imidazo[1,2-b]pyridazin-6-amine]
